The record followed here is ChEMBL document CHEMBL2062513, “Pd-mediated functionalization of polysubstituted pyrroles: their evaluation as potential inhibitors of PDE4” (Bioorg Med Chem Lett, 2012).

Assay [1] concerns the target 3',5'-cyclic-AMP phosphodiesterase 4B (Homo sapiens) (UniProt Q07343). Nature of the assay: Inhibition of recombinant His-tagged PDE4B expressed in Sf9 cells at 30 uM preincubated for 15 mins before cAMP addition measured after 1 hr by luminescence assay.
For assay [2] the target is unchanged. Nature of the assay: Inhibition of recombinant His-tagged PDE4B expressed in Sf9 cells preincubated for 15 mins before cAMP addition measured after 1 hr by luminescence assay.

Sequence of 3',5'-cyclic-AMP phosphodiesterase 4B (Homo sapiens) (Q07343 whole entry): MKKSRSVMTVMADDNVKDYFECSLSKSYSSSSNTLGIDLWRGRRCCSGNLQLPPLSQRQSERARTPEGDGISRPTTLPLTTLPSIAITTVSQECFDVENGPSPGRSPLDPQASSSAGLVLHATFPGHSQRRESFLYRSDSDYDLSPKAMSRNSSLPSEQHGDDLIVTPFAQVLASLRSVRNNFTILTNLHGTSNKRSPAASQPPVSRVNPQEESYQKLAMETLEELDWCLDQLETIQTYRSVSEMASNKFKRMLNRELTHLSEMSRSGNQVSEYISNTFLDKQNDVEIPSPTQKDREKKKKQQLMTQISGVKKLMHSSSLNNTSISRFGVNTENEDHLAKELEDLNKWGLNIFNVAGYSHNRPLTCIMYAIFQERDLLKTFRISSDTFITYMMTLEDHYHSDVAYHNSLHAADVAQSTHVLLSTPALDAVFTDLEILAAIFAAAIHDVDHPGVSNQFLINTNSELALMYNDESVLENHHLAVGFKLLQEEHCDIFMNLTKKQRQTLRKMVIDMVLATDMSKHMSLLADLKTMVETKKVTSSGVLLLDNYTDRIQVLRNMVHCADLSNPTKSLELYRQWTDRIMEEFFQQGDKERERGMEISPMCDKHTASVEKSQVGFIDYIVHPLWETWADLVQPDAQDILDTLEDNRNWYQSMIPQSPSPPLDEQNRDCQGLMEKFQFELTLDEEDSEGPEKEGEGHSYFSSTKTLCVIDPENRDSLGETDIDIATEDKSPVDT

In general, inhibition refers to the change of the read-out against control, counted positive when it falls. For the compound `CCOC(=O)/C=C/c1ccc(-n2c(-c3ccccc3)cc(C(=O)OCC)c2C(=O)c2ccccc2)cc1`, the inhibition in assay [1] was 74.7%; in assay [2], “Dose-dependent effect”.
Take `CCCCCCC#Cc1ccc(-n2c(-c3ccccc3)cc(C(=O)OCC)c2C(=O)c2ccccc2)cc1`: the inhibition in assay [1] turned out to be 22.1%.
On the same count and under the same terms, to `CCOC(=O)c1cc(-c2ccccc2)n(-c2ccc(/C=C/C(=O)OC)cc2)c1C(=O)c1ccccc1` belongs 45.2%.
As for `CCOC(=O)c1cc(-c2ccccc2)n(-c2ccc(/C(C)=C/C(=O)OC)cc2)c1C(=O)c1ccccc1`, the inhibition is 76.7% in assay [1] and “Dose-dependent effect” in assay [2].
As for `CCOC(=O)c1cc(-c2ccccc2)n(-c2ccc(/C=C/C(=O)OC(C)(C)C)cc2)c1C(=O)c1ccccc1`, the inhibition in assay [1] stood at 36.1%.
Same read-out and setting: the figure for `CCOC(=O)c1cc(-c2ccccc2)n(-c2ccc(-c3ccc(OC)cc3)cc2)c1C(=O)c1ccccc1` is 24.8%.
